Active and inactive are the calls of the source. The rule behind the calls is not given here.
Test system: CCRIS mutagenicity, Ames/micronucleus/aberration tests
Test: CCRIS mutagenicity studies
[1] = Test System: AMES SALMONELLA TYPHIMURIUM, Strain/Indicator: TA98, Metabolic Activation: NONE, Method: STANDARD PLATE
[2] = Test System: AMES SALMONELLA TYPHIMURIUM, Strain/Indicator: TA100, Metabolic Activation: NONE, Method: STANDARD PLATE
[3] = Test System: AMES SALMONELLA TYPHIMURIUM, Strain/Indicator: TA98, Metabolic Activation: NONE, Method: PREINCUBATION
[4] = Test System: AMES SALMONELLA TYPHIMURIUM, Strain/Indicator: TA100, Metabolic Activation: NONE, Method: PREINCUBATION

CCN(CC)c1ccc2nc3ccc(=[N+](CC)CC)cc-3oc2c1
mutagenic call (Test System: AMES SALMONELLA TYPHIMURIUM, Strain/Indicator: TA98, Metabolic Activation: HAMSTER, LIVER, S-9, AROCLOR 1254 (10%), Method: STANDARD PLATE): inactive; negative | mutagenic call [1]: active; positive | mutagenic call (Test System: AMES SALMONELLA TYPHIMURIUM, Strain/Indicator: TA98, Metabolic Activation: RAT, LIVER, S-9, AROCLOR 1254 (10%), Method: STANDARD PLATE): inactive; negative | mutagenic call (Test System: AMES SALMONELLA TYPHIMURIUM, Strain/Indicator: TA100, Metabolic Activation: HAMSTER, LIVER, S-9, AROCLOR 1254 (10%), Method: STANDARD PLATE): inactive; negative | mutagenic call [2]: inactive; negative | mutagenic call (Test System: AMES SALMONELLA TYPHIMURIUM, Strain/Indicator: TA100, Metabolic Activation: RAT, LIVER, S-9, AROCLOR 1254 (10%), Method: STANDARD PLATE): inactive; negative | mutagenic call (Test System: Ames Salmonella typhimurium, Strain/Indicator: TA98, Metabolic Activation: None, Method: Preincubation): inactive; negative | mutagenic call (Test System: Ames Salmonella typhimurium, Strain/Indicator: TA98, Metabolic Activation: Rat, Liver, S-9, Aroclor 1254, Method: Preincubation): inactive; negative | mutagenic call (Test System: Ames Salmonella typhimurium, Strain/Indicator: TA100, Metabolic Activation: None, Method: Preincubation): inactive; negative | mutagenic call (Test System: Ames Salmonella typhimurium, Strain/Indicator: TA100, Metabolic Activation: Rat, Liver, S-9, Aroclor 1254, Method: Preincubation): inactive; negative | mutagenic call (Test System: Ames Salmonella typhimurium, Strain/Indicator: TA102, Metabolic Activation: None, Method: Preincubation): inactive; negative | mutagenic call (Test System: Ames Salmonella typhimurium, Strain/Indicator: TA102, Metabolic Activation: Rat, Liver, S-9, Aroclor 1254, Method: Preincubation): inactive; negative | mutagenic call (Test System: Ames Salmonella typhimurium, Strain/Indicator: TA1535, Metabolic Activation: None, Method: Preincubation): inactive; negative | mutagenic call (Test System: Ames Salmonella typhimurium, Strain/Indicator: TA1535, Metabolic Activation: Rat, Liver, S-9, Aroclor 1254, Method: Preincubation): inactive; negative | mutagenic call (Test System: MOUSE LYMPHOMA, Strain/Indicator: L5178Y (TK+/TK-), Metabolic Activation: NONE, Method: SUSPENSION/PLATE): active; positive. reevaluation of results: positive | mutagenic call (Test System: MOUSE LYMPHOMA, Strain/Indicator: L5178Y (TK+/TK-), Metabolic Activation: RAT, LIVER, S-9, AROCLOR 1254, Method: SUSPENSION/PLATE): active; positive. reevaluation of results: positive

CNC(=O)Oc1cccc2c1OC(C)(C)C2=O
mutagenic call (End Point: IN VIVO MICRONUCLEUS, Test System: BONE MARROW POLYCHROMATIC ERYTHROCYTES, Species: MOUSE, Strain/Sex: KM/MALE, FEMALE, Route: IP INJECTION): inactive; negative

O=C1C=Cc2c(ccc3cc4ccccc4cc23)C1=O
mutagenic call (Test System: AMES SALMONELLA TYPHIMURIUM, Strain/Indicator: TA97A, Metabolic Activation: NONE, Method: PREINCUBATION): inactive; negative | mutagenic call [3]: inactive; negative | mutagenic call [4]: inactive; negative | mutagenic call (Test System: AMES SALMONELLA TYPHIMURIUM, Strain/Indicator: TA102, Metabolic Activation: NONE, Method: PREINCUBATION): inactive; negative | mutagenic call (Test System: AMES SALMONELLA TYPHIMURIUM, Strain/Indicator: TA104, Metabolic Activation: NONE, Method: PREINCUBATION): inactive; negative

CCOP(=S)(OCC)Oc1nc(Cl)c(Cl)cc1Cl
mutagenic call (End Point: In vitro chromosomal aberrations, Test System: Human lymphocytes, Metabolic Activation: None): active; positive (structural changes and ploidy) | mutagenic call [3]: inactive; negative | mutagenic call (Test System: AMES SALMONELLA TYPHIMURIUM, Strain/Indicator: TA98, Metabolic Activation: RAT, LIVER, S-9, AROCLOR 1254, Method: PREINCUBATION): inactive; negative | mutagenic call [4]: inactive; negative | mutagenic call (Test System: AMES SALMONELLA TYPHIMURIUM, Strain/Indicator: TA100, Metabolic Activation: RAT, LIVER, S-9, AROCLOR 1254, Method: PREINCUBATION): inactive; negative | mutagenic call (Test System: AMES SALMONELLA TYPHIMURIUM, Strain/Indicator: TA1535, Metabolic Activation: NONE, Method: PREINCUBATION): inactive; negative | mutagenic call (Test System: AMES SALMONELLA TYPHIMURIUM, Strain/Indicator: TA1535, Metabolic Activation: RAT, LIVER, S-9, AROCLOR 1254, Method: PREINCUBATION): inactive; negative | mutagenic call (Test System: AMES SALMONELLA TYPHIMURIUM, Strain/Indicator: TA1537, Metabolic Activation: NONE, Method: PREINCUBATION): inactive; negative | mutagenic call (Test System: AMES SALMONELLA TYPHIMURIUM, Strain/Indicator: TA1537, Metabolic Activation: RAT, LIVER, S-9, AROCLOR 1254, Method: PREINCUBATION): inactive; negative | mutagenic call (Test System: AMES SALMONELLA TYPHIMURIUM, Strain/Indicator: TA1538, Metabolic Activation: NONE, Method: PREINCUBATION): inactive; negative | mutagenic call (Test System: AMES SALMONELLA TYPHIMURIUM, Strain/Indicator: TA1538, Metabolic Activation: RAT, LIVER, S-9, AROCLOR 1254, Method: PREINCUBATION): inactive; negative | mutagenic call (Test System: CHINESE HAMSTER OVARY, Strain/Indicator: CHO-K1-BH4 (HGPRT)/6-THIOGUANINE, Metabolic Activation: NONE): inactive; negative | mutagenic call (Test System: CHINESE HAMSTER OVARY, Strain/Indicator: CHO-K1-BH4 (HGPRT)/6-THIOGUANINE, Metabolic Activation: RAT, LIVER , S-9, AROCLOR 1254): inactive; negative | mutagenic call (Test System: UDS RAT PRIMARY HEPATOCYTES, Strain/Indicator: THY INCORP, Metabolic Activation: NONE, Method: AUTORADIOGRAPHY): inactive; negative

COC(=O)C1=CCCN(N=O)C1
mutagenic call [1]: active; positive | mutagenic call (Test System: AMES SALMONELLA TYPHIMURIUM, Strain/Indicator: TA98, Metabolic Activation: RAT, LIVER, S-9, Method: STANDARD PLATE): active; positive | mutagenic call [2]: active; positive | mutagenic call (Test System: AMES SALMONELLA TYPHIMURIUM, Strain/Indicator: TA100, Metabolic Activation: RAT, LIVER, S-9, Method: STANDARD PLATE): active; positive
